These are literature values, as cited in patent US7560446B2, “Use of angiotensin II receptor antagonists for treating acute myocardial infarction” (Novartis AG, priority 1999, dated 2009).

For the series the following is noted: preclinical; administration of the compound in acute MI; no details given.

Consider `CCCCC(=O)N(Cc1ccc(-c2ccccc2-c2nnn[nH]2)cc1)[C@H](C(=O)O)C(C)C` [valsartan, (S)—N-(1-carboxy-2-methylprop-1-yl)-N-pentanoyl-N—[2′(1H-tetrazol-5-yl)biphenyl-4-ylmethyl]amine], for which the “size of the MI” value is on record as “reduce the size of the MI”.
